{"source": "PubChem BioAssay (NCI)", "assay_in_all_cases": "growth of human tumour cells (NCI), 48 h", "key": {"786-0 renal": {"system": "786-0 renal"}, "A549 NSCLC": {"system": "A549 NSCLC"}, "HCT-15 colon": {"system": "HCT-15 colon"}, "HOP-62 NSCLC": {"system": "HOP-62 NSCLC"}, "HS 578T breast": {"system": "HS 578T breast"}, "HT29 colon": {"system": "HT29 colon"}, "LOX IMVI melanoma": {"system": "LOX IMVI melanoma"}, "MCF7 breast": {"system": "MCF7 breast"}, "MDA-MB-231 breast": {"system": "MDA-MB-231 breast"}, "MOLT-4 leukemia": {"system": "MOLT-4 leukemia"}, "NCI-H226 lung": {"system": "NCI-H226 lung"}, "NCI-H23 lung": {"system": "NCI-H23 lung"}, "NCI-H522 lung": {"system": "NCI-H522 lung"}, "OVCAR-5 ovarian": {"system": "OVCAR-5 ovarian"}, "PC-3 prostate": {"system": "PC-3 prostate"}, "SF-295 CNS": {"system": "SF-295 CNS"}, "SF-539 CNS": {"system": "SF-539 CNS"}, "SK-MEL-2 melanoma": {"system": "SK-MEL-2 melanoma"}, "SK-MEL-28 melanoma": {"system": "SK-MEL-28 melanoma"}, "UO-31 renal": {"system": "UO-31 renal"}}, "note": "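Exposure lasted 48 hours, with cells grown in 96-well plates and compounds tested at five concentrations. TGI: concentration producing complete growth inhibition.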"}
{"compound": "O=C1CSC(c2ccccc2[N+](=O)[O-])N1c1ccc(-n2c(-c3ccccc3)nc3ccccc3c2=O)cc1", "note": "(stereo not given)", "values": [{"measurement": "TGI", "setting": "786-0 renal", "result": "> 100", "unit": "µM"}, {"measurement": "TGI", "setting": "A549 NSCLC", "result": "> 100", "unit": "µM"}, {"measurement": "TGI", "setting": "HCT-15 colon", "result": "> 100", "unit": "µM"}, {"measurement": "TGI", "setting": "HOP-62 NSCLC", "result": 54.1, "unit": "µM"}, {"measurement": "TGI", "setting": "HS 578T breast", "result": 54.8, "unit": "µM"}, {"measurement": "TGI", "setting": "HT29 colon", "result": "> 100", "unit": "µM"}, {"measurement": "TGI", "setting": "LOX IMVI melanoma", "result": "> 100", "unit": "µM"}, {"measurement": "TGI", "setting": "MCF7 breast", "result": "> 100", "unit": "µM"}, {"measurement": "TGI", "setting": "MDA-MB-231 breast", "result": "> 100", "unit": "µM"}, {"measurement": "TGI", "setting": "MOLT-4 leukemia", "result": "> 100", "unit": "µM"}, {"measurement": "TGI", "setting": "NCI-H226 lung", "result": 89.2, "unit": "µM"}, {"measurement": "TGI", "setting": "NCI-H23 lung", "result": "> 100", "unit": "µM"}, {"measurement": "TGI", "setting": "NCI-H522 lung", "result": "> 100", "unit": "µM"}, {"measurement": "TGI", "setting": "OVCAR-5 ovarian", "result": "> 100", "unit": "µM"}, {"measurement": "TGI", "setting": "PC-3 prostate", "result": "> 100", "unit": "µM"}, {"measurement": "TGI", "setting": "SF-295 CNS", "result": 64.3, "unit": "µM"}, {"measurement": "TGI", "setting": "SF-539 CNS", "result": "> 100", "unit": "µM"}, {"measurement": "TGI", "setting": "SK-MEL-2 melanoma", "result": "> 100", "unit": "µM"}, {"measurement": "TGI", "setting": "SK-MEL-28 melanoma", "result": "> 100", "unit": "µM"}, {"measurement": "TGI", "setting": "UO-31 renal", "result": "> 100", "unit": "µM"}]}
{"compound": "CC(=O)O[C@H]1CC[C@@]2(C)C(=CC[C@H]3[C@@H]4C/C(=C\\c5ccncc5)[C@H](OC(C)=O)[C@@]4(C)CC[C@@H]32)C1", "values": [{"measurement": "TGI", "setting": "786-0 renal", "result": 23.3, "unit": "µM"}, {"measurement": "TGI", "setting": "A549 NSCLC", "result": 29.8, "unit": "µM"}, {"measurement": "TGI", "setting": "HCT-15 colon", "result": 15.6, "unit": "µM"}, {"measurement": "TGI", "setting": "HOP-62 NSCLC", "result": 17.7, "unit": "µM"}, {"measurement": "TGI", "setting": "HS 578T breast", "result": "> 100", "unit": "µM"}, {"measurement": "TGI", "setting": "HT29 colon", "result": 20.3, "unit": "µM"}, {"measurement": "TGI", "setting": "LOX IMVI melanoma", "result": 13.3, "unit": "µM"}, {"measurement": "TGI", "setting": "MCF7 breast", "result": 30.3, "unit": "µM"}, {"measurement": "TGI", "setting": "MDA-MB-231 breast", "result": 41.1, "unit": "µM"}, {"measurement": "TGI", "setting": "MOLT-4 leukemia", "result": 13.9, "unit": "µM"}, {"measurement": "TGI", "setting": "NCI-H226 lung", "result": 34.6, "unit": "µM"}, {"measurement": "TGI", "setting": "NCI-H23 lung", "result": 19.3, "unit": "µM"}, {"measurement": "TGI", "setting": "NCI-H522 lung", "result": 18.5, "unit": "µM"}, {"measurement": "TGI", "setting": "OVCAR-5 ovarian", "result": 36.6, "unit": "µM"}, {"measurement": "TGI", "setting": "PC-3 prostate", "result": 46.8, "unit": "µM"}, {"measurement": "TGI", "setting": "SF-295 CNS", "result": 19.5, "unit": "µM"}, {"measurement": "TGI", "setting": "SF-539 CNS", "result": 15.6, "unit": "µM"}, {"measurement": "TGI", "setting": "SK-MEL-2 melanoma", "result": 33.3, "unit": "µM"}, {"measurement": "TGI", "setting": "SK-MEL-28 melanoma", "result": 20.6, "unit": "µM"}, {"measurement": "TGI", "setting": "UO-31 renal", "result": 20.7, "unit": "µM"}]}
{"compound": "Cc1n(-c2ccccc2)c2c([n+]1Cc1ccc([N+](=O)[O-])cc1)C(=O)c1ccccc1C2=O", "values": [{"measurement": "TGI", "setting": "786-0 renal", "result": 14.7, "unit": "µM"}, {"measurement": "TGI", "setting": "A549 NSCLC", "result": 10.7, "unit": "µM"}, {"measurement": "TGI", "setting": "HCT-15 colon", "result": 22.5, "unit": "µM"}, {"measurement": "TGI", "setting": "HOP-62 NSCLC", "result": 16.6, "unit": "µM"}, {"measurement": "TGI", "setting": "HS 578T breast", "result": 5.51, "unit": "µM"}, {"measurement": "TGI", "setting": "HT29 colon", "result": 6.43, "unit": "µM"}, {"measurement": "TGI", "setting": "LOX IMVI melanoma", "result": 3.73, "unit": "µM"}, {"measurement": "TGI", "setting": "MCF7 breast", "result": 2.75, "unit": "µM"}, {"measurement": "TGI", "setting": "MDA-MB-231 breast", "result": 3.08, "unit": "µM"}, {"measurement": "TGI", "setting": "MOLT-4 leukemia", "result": 2.57, "unit": "µM"}, {"measurement": "TGI", "setting": "NCI-H226 lung", "result": 15.1, "unit": "µM"}, {"measurement": "TGI", "setting": "NCI-H23 lung", "result": 5.22, "unit": "µM"}, {"measurement": "TGI", "setting": "NCI-H522 lung", "result": 1.67, "unit": "µM"}, {"measurement": "TGI", "setting": "OVCAR-5 ovarian", "result": 3.46, "unit": "µM"}, {"measurement": "TGI", "setting": "PC-3 prostate", "result": 7.25, "unit": "µM"}, {"measurement": "TGI", "setting": "SF-295 CNS", "result": 15.3, "unit": "µM"}, {"measurement": "TGI", "setting": "SF-539 CNS", "result": 3.88, "unit": "µM"}, {"measurement": "TGI", "setting": "SK-MEL-2 melanoma", "result": 2.97, "unit": "µM"}, {"measurement": "TGI", "setting": "SK-MEL-28 melanoma", "result": 3.59, "unit": "µM"}, {"measurement": "TGI", "setting": "UO-31 renal", "result": 26.6, "unit": "µM"}]}
{"compound": "Nc1ccc(-c2nc3ccccc3s2)cc1I", "values": [{"measurement": "TGI", "setting": "786-0 renal", "result": "> 100", "unit": "µM"}, {"measurement": "TGI", "setting": "A549 NSCLC", "result": "> 100", "unit": "µM"}, {"measurement": "TGI", "setting": "HCT-15 colon", "result": "> 100", "unit": "µM"}, {"measurement": "TGI", "setting": "HOP-62 NSCLC", "result": "> 100", "unit": "µM"}, {"measurement": "TGI", "setting": "HS 578T breast", "result": "> 100", "unit": "µM"}, {"measurement": "TGI", "setting": "HT29 colon", "result": "> 100", "unit": "µM"}, {"measurement": "TGI", "setting": "LOX IMVI melanoma", "result": "> 100", "unit": "µM"}, {"measurement": "TGI", "setting": "MCF7 breast", "result": "> 100", "unit": "µM"}, {"measurement": "TGI", "setting": "MDA-MB-231 breast", "result": "> 100", "unit": "µM"}, {"measurement": "TGI", "setting": "MOLT-4 leukemia", "result": "> 46.4", "unit": "µM"}, {"measurement": "TGI", "setting": "NCI-H226 lung", "result": "> 100", "unit": "µM"}, {"measurement": "TGI", "setting": "NCI-H23 lung", "result": "> 100", "unit": "µM"}, {"measurement": "TGI", "setting": "NCI-H522 lung", "result": "> 100", "unit": "µM"}, {"measurement": "TGI", "setting": "OVCAR-5 ovarian", "result": "> 100", "unit": "µM"}, {"measurement": "TGI", "setting": "PC-3 prostate", "result": "> 100", "unit": "µM"}, {"measurement": "TGI", "setting": "SF-295 CNS", "result": "> 100", "unit": "µM"}, {"measurement": "TGI", "setting": "SF-539 CNS", "result": "> 100", "unit": "µM"}, {"measurement": "TGI", "setting": "SK-MEL-2 melanoma", "result": "> 100", "unit": "µM"}, {"measurement": "TGI", "setting": "SK-MEL-28 melanoma", "result": "> 100", "unit": "µM"}, {"measurement": "TGI", "setting": "UO-31 renal", "result": "> 100", "unit": "µM"}]}
